Source: patent publication US20110124630A1, “STEMONAMIDE SYNTHESIS INTERMEDIATE AND PHARMACEUTICAL COMPOSITION FOR PREVENTION AND/OR TREATMENT OF CANCER” (priority 2008, published 2011)

Legend:
Pim-3 = Pim-3 (Homo sapiens, UniProt Q86V86); test: In vitro assay of Pim-3 kinase activity (His-Bad phosphorylation, ELISA with anti-pBad Ser112 antibody); assay type: biochemical; conditions: 0, 20, 40, 80, 160 μmol/l compound; 10 μmol/l ATP; 30° C. 1 hour; FIG. 1
Description: A His-Bad protein solution (3 μg/ml) diluted with a carbonate buffer (pH 9.6) (15 mmol/l Na2CO3(Wako), […] NaHCO3 (Wako), 0.02% (w/v) NaN3 (Wako), pH 9.6) was added at 100 μl/well to a 96-well microplate (Nunc-Immuno™ Plate, NUNC Brand Products, Nalge Nunc International, Denmark), and the plate was coated at 4° C. overnight. The plate was washed 3 times on the following day, a 1% BSA/PBS(−) solution was added at 150 μl/well, the plate was blocked at 37° C. for 1 hour, and the plate was then washed 3 times. A kinase buffer containing 19.2 nmol/l thioredoxin-hexahistidine-Pim-3 fusion protein, 10 μmol/l ATP (Cell Signaling), and Compounds 5, 7, and 12 synthesized in the examples above (0, 20, 40, 80, and 160 μmol/l) (25 mmol/l Tris-HCl (pH 7.5), 10 mmol/l MgCl2, 0.1 mmol/l Na3VO4, 2 mmol/l dithiothreitol (DTT), 5 mmol/l s-glycerophosphate, Cell Signaling) was added at 40 μl/well to the treated plate. After the reaction was carried out at 30° C. for 1 hour, the plate was washed 5 times, the 1.000-fold diluted anti-pBadser112 rabbit antibody (Cell Signaling) was added at 100 μl/well, and the reaction was carried out at 37° C. for 1 hour. […] The plate was subjected to the absorbance assay at 405 nm using a microplate reader (Model 550, Bio-Rad). […]

HuH7 = test: Cell growth assay (liver cancer cell), WST-1; assay type: cell-based, human; conditions: 4, 6, 8, 10 μmol/l, 0-96 hours, FIG. 8
Description: (§1) Human liver cancer cell lines (Hep3B, HuH7, and HepG2 at 4000, 3000, and 4000 cells/well) were dispensed into a 96-well cell culture Microtest Plate (Becton Dickinson) with 100 μl of culture media. The media were removed 16 to 18 hours after the initiation of culture, and media containing the test compounds (0.1% DMSO, Compound 7 (4, 6, 8, and 10 μmol/l)) were added at 100 μl/well. After culture was continued for 0, 24, 48, 72, and 96 hours, the medium containing the test compound was removed, and a 10% WST-1 medium (Roche) was added at 100 μl/well. After culture was conducted for an additional 1 hour, the absorbance at 450 nm was assayed using a microplate reader (Model 550, Bio-Rad). RPMI-1640 medium (SIGMA) was used, and 10% calf serum (Invitrogen), 50 U/ml penicillin G (SIGMA), and 50 μg/ml streptomycin (SIGMA) were added to the medium. The cell lines were cultured in a 37° C. 5% CO2 carbon dioxide incubator (ESPEC).

HepG2 = test: Cell growth assay (liver cancer cell), WST-1; assay type: cell-based, human; conditions: 4, 6, 8, 10 μmol/l, 0-96 hours, FIG. 8
Description: as §1

Hep3B = test: Cell growth assay (liver cancer cell), WST-1; assay type: cell-based, human; conditions: 4, 6, 8, 10 μmol/l, 0-96 hours, FIG. 8
Description: as §1

L3.6 pl cell line = test: Cell growth assay (pancreatic cancer cell), WST-1; assay type: cell-based, human; conditions: Compound 7 4-10 μmol/l, Compound 12 5-30 μmol/l, 0-96 hours, FIG. 5
Description: (§2) Human pancreatic cancer cell lines (PCI35, PCI55, PCI66, MiaPaCa-2, L3.6 […], and PANC-1) were dispensed into a 96-well cell culture Microtest Plate (Becton Dickinson) at 3,000 cells/well with 100 μl of culture media. The media were removed 16 to 18 hours after the initiation of culture, and media containing the test compounds (i.e., 0.1% DMSO, Compound 7 (4, 6, 8, 10 μmol/l), Compound 12 (5, 10, 20, 30 μmol/l)) were added at 100 μl/well. After culture was continued for 0, 24, 48, 72, and 96 hours, the medium containing the test compound was removed, and a 10% WST-1 medium (Roche) was added at 100 μl/well. After culture was conducted for an additional 1 hour, the absorbance at 450 nm was assayed using a microplate reader (Model 550, Bio-Rad). RPMI-1640 medium (SIGMA) was used for the PCI35, PCI55, PCI66, MiaPaCa-2, and PANC-1 cell lines, MEM medium (Invitrogen) was used for the L3.6 pl cell lines, and 10% calf serum (Invitrogen), 50 U/ml penicillin G (SIGMA), and 50 μg/ml streptomycin (SIGMA) were added to every medium. The cell lines were cultured in a 37° C. 5% CO2 carbon dioxide incubator (ESPEC).

MiaPaCa-2 cell line = test: Cell growth assay (pancreatic cancer cell), WST-1; assay type: cell-based, human; conditions: Compound 7 4-10 μmol/l, Compound 12 5-30 μmol/l, 0-96 hours, FIG. 6
Description: as §2

PCI35 cell line = test: Cell growth assay (pancreatic cancer cell), WST-1; assay type: cell-based, human; conditions: Compound 7 4-10 μmol/l, Compound 12 5-30 μmol/l, 0-96 hours, FIG. 2
Description: as §2

PANC-1 cell line = test: Cell growth assay (pancreatic cancer cell), WST-1; assay type: cell-based, human; conditions: Compound 7 4-10 μmol/l, Compound 12 5-30 μmol/l, 0-96 hours, FIG. 4
Description: as §2

PCI66 cell line = test: Cell growth assay (pancreatic cancer cell), WST-1; assay type: cell-based, human; conditions: Compound 7 4-10 μmol/l, Compound 12 5-30 μmol/l, 0-96 hours, FIG. 7
Description: as §2

PCI55 cell line = test: Cell growth assay (pancreatic cancer cell), WST-1; assay type: cell-based, human; conditions: Compound 7 4-10 μmol/l, Compound 12 5-30 μmol/l, 0-96 hours, FIG. 3
Description: as §2

HT29 = test: Cell growth assay (colon cancer cell), WST-1; assay type: cell-based, human; conditions: 4, 6, 8, 10 μmol/l, 0-96 hours, FIG. 9
Description: (§3) Human colon cancer cell lines (SW48, SW480, and HT29 at 3,000 cells/well) were dispensed into a 96-well cell culture Microtest Plate (Becton Dickinson) with 100 μl of culture media. The media were removed 16 to 18 hours after the initiation of culture, and the media containing the test compounds (0.1% DMSO, Compound 7 (4, 6, 8, and 10 μmol/l)) were added at 100 μl/well. After culture was continued for 0, 24, 48, 72, and 96 hours, the medium containing the test compound was removed, and a 10% WST-1 medium (Roche) was added at 100 μl/well. After culture was conducted for an additional 1 hour, the absorbance at 450 nm was assayed using a microplate reader (Model 550, Bio-Rad). RPMI-1640 medium (SIGMA) was used, and 10% calf serum (Invitrogen), 50 U/ml penicillin G (SIGMA), and 50 μg/ml streptomycin (SIGMA) were added to the medium. The cell lines were cultured in a 37° C. 5% CO2 carbon dioxide incubator (ESPEC).

SW480 = test: Cell growth assay (colon cancer cell), WST-1; assay type: cell-based, human; conditions: 4, 6, 8, 10 μmol/l, 0-96 hours, FIG. 9
Description: as §3

SW48 = test: Cell growth assay (colon cancer cell), WST-1; assay type: cell-based, human; conditions: 4, 6, 8, 10 μmol/l, 0-96 hours, FIG. 9
Description: as §3

Row | Compound | inhibition of Pim-3 activity (Pim-3) | inhibition of cell growth (HuH7) | inhibition of cell growth (HepG2) | inhibition of cell growth (Hep3B) | melting point | inhibition of cell growth (L3.6 pl cell line) | inhibition of cell growth (MiaPaCa-2 cell line) | inhibition of cell growth (PCI35 cell line) | inhibition of cell growth (PANC-1 cell line) | inhibition of cell growth (PCI66 cell line) | inhibition of cell growth (PCI55 cell line) | inhibition of cell growth (HT29) | inhibition of cell growth (SW480) | inhibition of cell growth (SW48)
1 | O=C1CC[C@@]23C(=O)CC[C@@H]2CCCCN13 [Compound 5] | inhibit the Pim-3 activity in a concentration-dependent manner | – | – | – | – | – | – | – | – | – | – | – | – | –
2 | CCOC(=O)C#C[C@@]1(O)/C(=C/c2ccccc2)C[C@@H]2CCCCN3C(=O)CC[C@]231 [Compound 7] | inhibit the Pim-3 activity in a concentration-dependent manner | inhibit the growth | inhibit the growth | inhibit the growth | 209 to 211 °C | inhibit the growth | inhibit the growth | inhibit the growth | inhibit the growth | inhibit the growth | inhibit the growth | inhibit the growth | inhibit the growth | inhibit the growth
